Results from US6762174B1 (priority 1998, dated 2004).
“And” between values parts separate entries of the source, which are not always exact repeats. Identical values can stand only once. Like-named read-outs stand apart in the source and are kept apart here. Marks after values point to notes of the source that are not given here.

What was measured:
[1] = system: human hematopoietic progenitor cells (CD34+ cells); experiment: Blood cell stimulation: CD34+ suspension culture, lineage marker ELISA; assay type: cell-based
Experimental: A 96-well-based suspension culture system (Warren et al, Stem Cells 13:167 (1995) for human hematopoietic progenitor cells was used to monitor the commitment and differentiation of CD34+ cells in vitro. Expression of maturation and lineage markers on the cells in culture were measured by ELISA. […] A combination of growth factors was added that stimulates the expression of the appropriate lineage markers. The culture consisted of: IMDM plus 15% FBS, 0.5 ng/ml IL-3, 20 ng/ml SCF, 1 unit/ml EPO, 1 ng/ml GCSF and the indicated concentrations of test compounds. The cells were then fixed with a glutaraldehyde-paraformaldehyde mixture, attaching the cells firmly to the plastic. An ELISA was performed (Warren et al, Stem Cells 13:167 (1995)), using appropriate primary antibodies directed against cell surface markers. The expression of three different lineage markers was measured: CD14 (monocyte), CD15 (neutrophil), and glycophorin A (erythroid).

[2] = system: anti-Pn14 antibodies (Pn14-Tetanus Toxin antigen); design: species or system BALB/c female mice; conditions: mouse, in vivo
[3] = Taxol 40 mg/kg IV
[4] = Paclitaxel toxicity, first study: body weight and mortality; assay type: in vivo, female non-tumor-bearing athymic (NCr-nu) mice; conditions: BT 0 mg
Experimental: The effect of combining BT with paclitaxel (PAC, or TAXOL™) on the toxicity of paclitaxel was investigated. In a first study, groups of 10 female non-tumor-bearing athymic (NCr-nu) mice were administered paclitaxel i.v. at doses of 50 and 30 mg/kg/dose on a qld×5 schedule, which means once each day for five days. Paclitaxel (PAC) was in 12.5% cremophor/12.5% ethanol/75% saline alone, or in combination with 30 mg/kg BT (first dissolved in saline) and delivered as a single i.v. injection (0.1 cc/10 gm body weight). BT was also administered on a qld×5 schedule. Body weights were measured twice a week and survival data was recorded daily. The study was terminated on day 21.
Weight loss values reflect the lowest recorded weight, which was on day 7 for all groups. Importantly, there were fewer deaths when BT was coadministered with either 30 mg or 50 mg paclitaxel.
For the group receiving 50 mg paclitaxel, the survival difference was statistically significant (log rank=6.41, p=0.0113). There were 9 deaths on day 21 with 50 mg PAC alone, but only 2 deaths when 30 mg BT was administered with 50 mg PAC. When BT was coadministered with 30 mg PAC there was only 1 death on day 21, which was due not to toxicity, but to a technician error. By contrast, there were 2 toxic deaths with 30 mg PAC alone.

[5] = system: Hybridoma cells (ATCC #CRL-8014, OKT-8); experiment: Production of monoclonal antibodies from hybridomas (sandwich ELISA); assay type: cell-based; conditions: 200 ρg/ml vs control
Experimental: Hybridoma cells (ATCC #CRL-8014, OKT-8, secreting an IgG2 anti-human T-cell subset antibody) were growth with or without N-carbobenzoxy-β-alanyl-taurine zinc salt in T25 culture flasks. Cells were inoculated at a density of 10,000 cells/ml and maintained below 500,000 cells/ml in 5 mls of protein-free media containing HyQ-PF-MAB from Hyclone. Aliquots were assayed for Mab production by a sandwich ELISA. Aliquots were diluted to be within the standard range and added to plates precoated with goat anti-mouse IgG by incubating two hours at room temperature. Wells were washed and reacted with diluted supernatants, then washed and detected with peroxidase labeled anti-mouse antibodies.

[6] = system: delayed type hypersensitivity (DTH) response to oxazalone (OX); design: species or system mice; conditions: mouse, in vivo
[7] = Study 2: 1 ug/ml, 1700 cells per well

Compound: NCCC(=O)NCCS(=O)(=O)O [Taurox-S, β-alanyl-taurine]
- Percent difference (relative to control), monocytes ([1]; Study 1: 1 ng/ml compound): 47%
- Percent difference (relative to control), neutrophils ([1]; Study 1: 1 ng/ml compound): 55%
- Percent difference (relative to control), red blood cells ([1]; Study 1: 1 ng/ml compound): 50%
- Mean Change in O.D. from pre-boost 10 days after boost with UNCONJUGATED polysaccharide [2]: 204
- Mean Change in O.D. from pretest, Day 4 [2]: 2.9
- Mean Change in O.D. from pretest, Day 14 [2]: 697
- Mean Change in O.D. from pretest, Day 14 ([2]; ip): 681 and 671

Compound: CC(=O)O[C@H]1C(=O)[C@@]2(C)[C@H]([C@H](OC(=O)c3ccccc3)[C@]3(O)C[C@H](OC(=O)[C@H](O)[C@@H](NC(=O)c4ccccc4)c4ccccc4)C(C)=C1C3(C)C)[C@]1(OC(C)=O)CO[C@@H]1C[C@@H]2O [PAC, paclitaxel]
- Percent Body Weight Loss From Day 0 ([3]; day 1): 3.8%
- Percent Body Weight Loss From Day 0 ([3]; day 5): 10.7%
- Percent Body Weight Loss From Day 0 ([3]; day 6): 11.0%
- Percent Body Weight Loss From Day 0 ([3]; day 7): 15.2%
- Percent Body Weight Loss From Day 0 ([3]; day 8): 17.2%
- Percent Body Weight Loss From Day 0 ([3]; day 9): 17.5%
- Percent Body Weight Loss From Day 0 ([3]; day 10): 14.6%
- Percent Body Weight Loss From Day 0 ([3]; day 11): 11.8%
- Percent Body Weight Loss From Day 0 ([3]; day 12): 10.4%
- Percent Body Weight Loss From Day 0 ([3]; day 13): 7.8%
- Percent Body Weight Loss From Day 0 ([3]; day 21): −1.2%
- deaths ([4]; PAC 30 mg, Day 1): 0
- mean weight ([4]; PAC 30 mg, Day 1): 19 gm
- % weight change ([4]; PAC 30 mg, Day 7): −26.3%
- deaths ([4]; PAC 30 mg, Day 7): 1
- mean weight ([4]; PAC 30 mg, Day 7): 14 gm
- % weight change ([4]; PAC 30 mg, Day 10): −21.1%
- deaths ([4]; PAC 30 mg, Day 10): 2
- mean weight ([4]; PAC 30 mg, Day 10): 15 gm
- % weight change ([4]; PAC 30 mg, Day 14): −5.3%
- deaths ([4]; PAC 30 mg, Day 14): 2
- mean weight ([4]; PAC 30 mg, Day 14): 18 gm
- % weight change ([4]; PAC 30 mg, Day 21): +21.1%
- deaths ([4]; PAC 30 mg, Day 21): 2
- mean weight ([4]; PAC 30 mg, Day 21): 23 gm
- deaths (cummul.) ([4]; PAC 50 mg, Day 1): 0
- mean weight ([4]; PAC 50 mg, Day 1): 19 gm
- % weight change ([4]; PAC 50 mg, Day 7): −31.6%
- deaths (cummul.) ([4]; PAC 50 mg, Day 7): 1
- mean weight ([4]; PAC 50 mg, Day 7): 13 gm
- % weight change ([4]; PAC 50 mg, Day 10): −36.8%
- deaths (cummul.) ([4]; PAC 50 mg, Day 10): 9
- mean weight ([4]; PAC 50 mg, Day 10): 12 gm
- % weight change ([4]; PAC 50 mg, Day 14): −26.3%
- deaths (cummul.) ([4]; PAC 50 mg, Day 14): 9
- mean weight ([4]; PAC 50 mg, Day 14): 14 gm
- % weight change ([4]; PAC 50 mg, Day 21): +10.5%
- deaths (cummul.) ([4]; PAC 50 mg, Day 21): 9
- mean weight ([4]; PAC 50 mg, Day 21): 21 gm

Compound: N-carbobenzoxy-β-alanyl-taurine zinc salt
- Increase of IgG μg/ml [5]: 316%
- Increase of IgG ρg/cell [5]: 93%
- Major DTH at 24 hrs [6]: 50*
- Major DTH at 48 hrs. [6]: 50
- Major DTH at either 24 or 48 hrs. [6]: 60
- Moderate DTH at 24 hrs [6]: 70
- response rate, moderate DTH at 24 hrs [6]: eight of ten
- total treated animals with major immune response [6]: 14
- total treated animals with major response [6]: 21
- Major DTH at 24 hrs ([6]; iv): 20 and 10
- Major DTH at 48 hrs. ([6]; iv): 20 and 10

Compound: O=C(CCNC(=O)OCc1ccccc1)NCCOP(=O)(O)O [Taurox-BOP, N-carboxybenzoxy-β-alanyl-ethanolamine phosphate]
- Percent difference (relative to control), monocytes ([1]; Study 1: 1 ng/ml compound): 18%
- Percent difference (relative to control), neutrophils ([1]; Study 1: 1 ng/ml compound): 21%
- Percent difference (relative to control), red blood cells ([1]; Study 1: 1 ng/ml compound): 0%
- Percent difference (relative to control), CD34 cells [1, 7]: 33%
- Percent difference (relative to control), RBC [1, 7]: 55%
- Percent difference (relative to control), monocytes [1, 7]: 9%
- Mean Change in O.D. from pretest, Day 4 [2]: 0
- Mean Change in O.D. from pretest, Day 14 [2]: 366
- Mean Change in O.D. from pretest, Day 14 ([2]; ip): 877 and 515
